# Measurements: patent publication US8957064B2, “Fused pyrimidines” (Bayer Intellectual Property GmbH, priority 2009, dated 2015)
# Assays:
# [1] = target: His-tagged human recombinant kinase full-length Akt2 activated by PDK1 (Homo sapiens (Human), UniProt P31751); experiment: Akt2 kinase assay (Akt2 TR-FRET assay, Biological Assay 2.0); assay type: biochemical; details: 10 μM ATP, 1 μM biotinylated peptide substrate, 60 min at 22° C.
# Text: Biological Assay 2.0: Akt2 Kinase Assay
# Akt2 inhibitory activity of compounds of the present invention was quantified employing the Akt2 TR-FRET assay as described in the following paragraphs.
# (§1) His-tagged human recombinant kinase full-length Akt2 expressed in insect cells and activated by PDK1 was purchased form Invitrogen (part number PV 3975). As substrate for the kinase reaction the biotinylated peptide biotin-Ahx-KKLNRTLSFAEPG (C-terminus in amide form) was used which can be purchased e.g. from the company Biosynthan GmbH (Berlin-Buch, Germany).
# (§2) For the assay 50 nl of a 100 fold concentrated solution of the test compound in DMSO was pipetted into a black low volume 384 well microtiter plate (Greiner Bio-One, Frickenhausen, Germany), 2 μl of a solution of Akt2 in assay buffer [50 mM TRIS/HCl pH 7.5, 5 mM MgCl2, 1 mM dithiothreitol, 0.02% (v/v) Triton X-100 (Sigma)] were added and the mixture was incubated for 15 min at 22° C. to allow prebinding of the test compounds to the enzyme before the start of the kinase reaction. Then the kinase reaction was started by the addition of 3 μl of a solution of adenosine-tri-phosphate (ATP, 16.7 μM=>final conc. in the 5 μl assay volume is 10 μM) and substrate (1.67 μM=>final conc. in the 5 μl assay volume is 1 μM) in assay buffer and the resulting mixture was incubated for a reaction time of 60 min at 22° C. The concentration of Akt2 in the assay was adjusted depending of the activity of the enzyme lot and was chosen appropriate to have the assay in the linear range, typical enzyme concentrations were in the range of about 0.2 ng/μl (final conc. in the 5 μl assay volume).
# (§3) The reaction was stopped by the addition of 5 μl of a solution of HTRF detection reagents (200 nM streptavidine-XL665 [Cisbio] and 1.5 nM anti-phosho-Serine antibody [Millipore, cat. #35-001] and 0.75 nM LANCE Eu-W 1024 labeled anti-mouse IgG antibody [Perkin Elmer]) in an aqueous EDTA-solution (100 mM EDTA, 0.1% (w/v) bovine serum albumin in 50 mM HEPES/NaOH pH 7.5).
# (§4) The resulting mixture was incubated 1 h at 22° C. to allow the binding of the biotinylated phosphorylated peptide to the streptavidine-XL665 and the antibodies. Subsequently the amount of phosphorylated substrate was evaluated by measurement of the resonance energy transfer from the anti-mouse-IgG-Eu-Chelate to the streptavidine-XL665. Therefore, the fluorescence emissions at 620 nm and 665 nm after excitation at 350 nm was measured in a TR-FRET reader, e.g. a Rubystar (BMG Labtechnologies, Offenburg, Germany) or a Viewlux (Perkin-Elmer). The ratio of the emissions at 665 nm and at […] was taken as the measure for the amount of phosphorylated substrate. The data were normalised (enzyme reaction without inhibitor=0% inhibition, all other assay components but no enzyme=100% inhibition).
# [2] = target: His-tagged human recombinant kinase full-length Akt1 (Homo sapiens (Human), UniProt P31749); experiment: Akt1 kinase assay (Akt1 TR-FRET assay, Biological Assay 1.0); assay type: biochemical; details: 10 μM ATP, 1 μM biotinylated peptide substrate, 60 min at 22° C.
# Text: Biological Assay 1.0: Akt1 Kinase Assay
# as §1, with “Akt1 inhibitory activity of compounds of the present invention may be quantified employing the Akt1 TR-FRET assay as described in the following paragraphs. His-tagged” for “His-tagged”, “Akt1” for “Akt2”, “cells” for “cells and activated by PDK1”, “3599).” for “3975).”
# as §2, with “Akt1” for “Akt2”, “0.05” for “0.2”
# as §3
# as §4, with “HTRF” for “TR-FRET”
# Chain of His-tagged human recombinant kinase full-length Akt1 (P31749 whole entry): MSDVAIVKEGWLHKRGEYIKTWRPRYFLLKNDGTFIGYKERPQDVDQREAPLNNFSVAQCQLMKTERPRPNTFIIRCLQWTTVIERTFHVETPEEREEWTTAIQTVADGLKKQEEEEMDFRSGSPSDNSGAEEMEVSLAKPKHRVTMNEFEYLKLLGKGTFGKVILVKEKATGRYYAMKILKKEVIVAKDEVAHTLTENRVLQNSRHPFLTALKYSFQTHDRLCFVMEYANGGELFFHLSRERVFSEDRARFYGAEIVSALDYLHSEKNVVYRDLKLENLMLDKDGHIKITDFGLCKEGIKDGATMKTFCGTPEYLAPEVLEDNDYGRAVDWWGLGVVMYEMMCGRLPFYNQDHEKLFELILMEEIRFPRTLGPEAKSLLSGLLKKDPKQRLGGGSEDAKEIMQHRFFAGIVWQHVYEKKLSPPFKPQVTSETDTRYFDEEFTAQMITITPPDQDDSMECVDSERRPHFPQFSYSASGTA
# Chain of His-tagged human recombinant kinase full-length Akt2 activated by PDK1 (P31751 whole entry): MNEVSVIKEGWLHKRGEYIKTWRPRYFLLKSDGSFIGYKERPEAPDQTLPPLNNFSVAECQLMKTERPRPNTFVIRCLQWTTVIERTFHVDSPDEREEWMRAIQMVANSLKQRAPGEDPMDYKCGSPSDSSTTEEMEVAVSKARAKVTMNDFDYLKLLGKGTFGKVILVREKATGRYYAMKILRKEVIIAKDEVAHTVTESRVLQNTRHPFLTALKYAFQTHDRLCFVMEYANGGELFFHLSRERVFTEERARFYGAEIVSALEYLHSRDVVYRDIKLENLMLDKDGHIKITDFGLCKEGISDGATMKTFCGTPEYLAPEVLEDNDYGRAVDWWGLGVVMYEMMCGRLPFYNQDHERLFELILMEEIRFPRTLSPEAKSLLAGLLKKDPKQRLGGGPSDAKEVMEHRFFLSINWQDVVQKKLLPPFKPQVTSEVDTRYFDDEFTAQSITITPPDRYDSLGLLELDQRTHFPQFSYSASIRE
Structure (SMILES),IC50 [1] [nM],IC50 [2] [nM]
"Cc1nc2nc(-c3ccc(CN4CCC(c5nc6cccnc6[nH]5)CC4)cc3)c(-c3ccccc3)cn2n1 [Example 23.0, 5-{4-[4-(3H-imidazo[4,5-b]pyridin-2-yl)-piperidin-1-ylmethyl]-phenyl}-2-methyl-6-phenyl-[1,2,4]triazolo[1,5-a]pyrimidine]",759,315
"Cc1nc2nc(-c3ccc(CN4CCC(c5cnc6ccccc6n5)CC4)cc3)c(-c3ccccc3)cn2n1 [Example 24.1, 2-{1-[4-(2-methyl-6-phenyl-[1,2,4]triazolo[1,5-a]pyrimidin-5-yl)-benzyl]-piperidin-4-yl}-quinoxaline]",9880,4370
"Cc1nc2nc(-c3ccc(CN4CC(c5n[nH]c(-c6ccccn6)n5)C4)cc3)c(-c3ccccc3)cn2c1Br [Example 26.0, 3-bromo-2-methyl-6-phenyl-7-{4-[3-(5-pyridine-2-yl-1H-[1,2,4]triazole-3-yl]-azetidine-1-ylmethyl]-phenyl}-imidazo[1,2-a]pyrimidine]",4,4
"COC(=O)c1cnn2cc(-c3c(F)cccc3F)c(-c3ccc(CN4CC(c5n[nH]c(-c6cccc(C)n6)n5)C4)cc3)nc12 [Example 27.0, 6-(2,6-difluorophenyl)-5-(4-{3-[5-(6-methylpyridine-2-yl)-1H-[1,2,4]triazole-3-yl]-azetidine-1-ylmethyl}-phenyl)-pyrazolo[1,5-a]pyrimidine-3-carboxylic acid methyl ester]",115,12
"CC(C)c1nc2nc(-c3ccc(CN4CCC(c5cnc6ccccc6n5)CC4)cc3)c(-c3ccccc3)cn2n1 [Example 30.0, 2-{1-[4-(2-isopropyl-6-phenyl-[1,2,4]triazolo[1,5-a]pyrimidin-5-yl)benzyl]-piperidine-4-yl}-quinoxaline]",509,6700
"COC(=O)c1cnn2cc(-c3ccc(F)cc3F)c(-c3ccc(CN4CC(c5n[nH]c(-c6ccccn6)n5)C4)cc3)nc12 [Example 32.0, 6-(2,4-difluorophenyl)-5-(4-{3-[5-(pyridine-2-yl)-1H-[1,2,4]triazole-3-yl]-azetidine-1-ylmethyl}-phenyl)-pyrazolo[1,5-a]pyrimidine-3-carboxylic acid methyl ester]",214,7
"Cc1cccc(-c2nc(C3CN(Cc4ccc(-c5nc6nc(C)nn6cc5-c5ccc(F)cc5F)cc4)C3)n[nH]2)n1 [Example 35.0, 6-(2,4-difluorophenyl)-2-methyl-5-(4-{3-[5-(6-methyl-pyridine-2-yl)-1H-[1,2,4]triazole-3-yl]-azetidine-1-ylmethyl}-phenyl)-[1,2,4]triazolo[1,5-a]pyrimidine]",42,29
"c1ccc(-c2cn3ccnc3nc2-c2ccc(CN3CCC(c4cnc5ccccc5n4)CC3)cc2)cc1 [Example 36.0, 2-{1-[4-(6-phenyl-imidazo[1,2-a]pyrimidin-7-yl)-benzyl]-piperidine-4-yl}-quinoxaline]",589,70
"Cc1cn2cc(-c3ccccc3)c(-c3ccc(CN4CCC(c5cnc6ccccc6n5)CC4)cc3)nc2n1 [Example 37.0, 2-{1-[4-(2-methyl-6-phenyl-imidazo[1,2-a]pyrimidin-7-yl)benzyl]-piperidine-4-yl}-quinoxaline]",256,77
"c1ccc(-c2cn3nc(C4CC4)nc3nc2-c2ccc(CN3CCC(c4cnc5ccccc5n4)CC3)cc2)cc1 [Example 40.0, 2-{1-[4-(2-cyclopropyl-6-phenyl-[1,2,4]triazolo[1,5-a]pyrimidin-5-yl)-benzyl]-piperidine-4-yl}-quinoxaline]",273,247

# More lines, in order of falling IC50 [1], values ahead:
IC50 [1] [nM],IC50 [2] [nM],Structure (SMILES)
2290,365,"Fc1ccc(-c2cn3ccnc3nc2-c2ccc(CN3CCC(c4cnc5ccccc5n4)CC3)cc2)cc1 [Example 34.0, 2-(1-{4-[6-(4-fluorophenyl)-imidazo[1,2-a]pyrimidin-7-yl]-benzyl}-piperidine-4-yl)-quinoxaline]"
761,14,"COC(=O)c1cnn2cc(-c3c(F)cccc3F)c(-c3ccc(CN4CC(c5n[nH]c(-c6ccccn6)n5)C4)cc3)nc12 [Example 28.0, 6-(2,6-difluorophenyl)-5-(4-{3-[5-(pyridine-2-yl)-1H-[1,2,4]triazole-3-yl]-azetidine-1-ylmethyl}-phenyl)-pyrazolo[1,5-a]pyrimidine-3-carboxylic acid methyl ester]"
417,288,"Cc1nc2nc(-c3ccc(CN4CCC(n5ncc6c(N)ncnc65)CC4)cc3)c(-c3ccccc3)cn2n1 [Example 22.0, 1-{1-[4-(2-methyl-6-phenyl-[1,2,4]-triazolo[1,5-a]pyrimidin-5-yl)benzyl]-piperidin-4-yl}-1H-pyrazolo[3,4-d]pyrimidin-4-ylamine]"
253,26,"Fc1ccc(-c2cn3ccnc3nc2-c2ccc(CN3CC(c4n[nH]c(-c5ccccn5)n4)C3)cc2)cc1 [Example 33.0, 6-(4-fluorophenyl)-7-{4-[3-(5-pyridine-2-yl-1H-[1,2,4]triazole-3-yl]-azetidine-1-ylmethyl]-phenyl}-imidazo[1,2-a]pyrimidine]"
35,84,CC(C)c1nc2nc(-c3ccc(CN4CC(c5n[nH]c(-c6ccccn6)n5)C4)cc3)c(-c3ccccc3)cn2n1 [Example 29.0]
27,29,"Cc1cccc(-c2nc(C3CN(Cc4ccc(-c5nc6nc(C7CC7)nn6cc5-c5ccc(F)cc5)cc4)C3)n[nH]2)n1 [Example 39.0, 2-cyclopropyl-6-(4-fluorophenyl)-5-(4-{3-[5-(6-methyl-pyridine-2-yl)-1H-[1,2,4]triazole-3-yl]-azetidine-1-ylmethyl}-phenyl)-[1,2,4]triazolo[1,5-a]pyrimidine]"
16,13,"Cc1cccc(-c2nc(C3CN(Cc4ccc(-c5nc6nc(C)cn6cc5-c5ccccc5)cc4)C3)n[nH]2)n1 [Example 38.0, 2-methyl-7-(4-{3-[5-(6-methylpyridine-2-yl)-1H-[1,2,4]triazole-3-yl]-azetidine-1-ylmethyl}-phenyl)-6-phenyl-imidazo[1,2-a]pyrimidine]"
14,70,"Cc1cccc(-c2nc(C3CN(Cc4ccc(-c5nc6nc(C(C)C)nn6cc5-c5ccccc5)cc4)C3)n[nH]2)n1 [Example 31.0, 2-isopropyl-5-(4-{3-[5-(6-methyl-pyridine-2-yl)-1H-[1,2,4]triazolo-3-yl]-azetidine-1-ylmethyl}-phenyl)-6-phenyl-[1,2,4]triazolo[1,5-a]pyrimidine]"
